Data set [1] concerns astrocyte/neuron co-culture. Briefly: Brain cell damage induced by hydrogen peroxide treatment (LDH assay). Type of data set: cell-based. The conditions noted are these: Rattus norvegicus, hydrogen peroxide (250 μM), 24 hours, read-out: 50% inhibition concentration against cell damage in entire co-culture system (EC50 value). How it is done: (§1) The brain was removed from 1 to 2 day old Wistar rats (Charles River) or Sprague-Dawley (IGS) rats (Charles River), and the cerebral cortex including the hippocampus was excised under ice cooling. After this cerebral cortex was minced, it was digested with papain solution (9 U/ml) containing DNase I (30 U/ml) at 37 degrees Celsius for 15 minutes, dispersing the cells. After further carrying out mechanical dispersing by pipetting, it was passed through a cell strainer with a pore size of 70 μm, and a cell suspension was obtained. Cells derived from 1.4 cerebra were seeded on 150 mm tissue culture dish (Iwaki Glass), and primary culture was carried out at 37 degrees Celsius and 5% CO2 using a D-MEM medium (Invitrogen) containing 10% heat-inactivated fetal calf serum (JRH). One day after the start of the culture, the nonadherent cells were removed, and the primary cultured astrocytes were obtained by continuing the culture for 4 to 5 further days. The primary cultured astrocytes were dispersed by trypsin treating, suspended in cryopreservation solution, and cryopreserved.
(§2) After thawing the cryopreserved primary cultured astrocytes, they were seeded on tissue culture plates (Iwaki Glass), and a confluent astrocyte layer was produced by a further 7 days of secondary culture using a D-MEM medium containing 10% heat-inactivated fetal calf serum. Neurons to be used in the co-culture with the astrocyte layer were obtained from fetal rat cerebrum. Briefly, brains were removed from Wistar rats (Charles River) or Sprague-Dawley (IGS) rats (Charles River) of embryonic age 18.5 days, and the cerebral cortex including the hippocampus was excised under ice cooling. After this cerebral cortex was minced, it was digested in papain solution (9 U/ml) containing DNase I (30 U/ml) at 37 degrees Celsius for 15 minutes, dispersing the cells. After further carrying out mechanical dispersing by pipetting, it was passed through a cell strainer with a pore size of 70 μm, and a cell suspension was obtained. This cell suspension was plated at a density of 1.3×10^5 cells/cm^2 on the astrocyte layer, and a co-culture was carried out using D-MEM/F-12 medium (Invitrogen) containing 10% heat-inactivated fetal calf serum and 5% horse serum (Invitrogen). 2 days after the start of the co-culture, cells were treated for 24 hours with 10 μM cytosine arabinoside in order to suppress the excessive cell proliferation of microglia and the like. 8 to 9 days after the start of the co-culture, cells were used for the test. Additionally, using one portion of the cells, immunofluorescent staining and nuclear staining was carried out with astrocyte recognizing antibodies (anti-GFAP) and neuron recognizing antibodies (anti-MAP2), in order to confirm that the present culture system is a co-culture system of astrocytes and neurons.
(§3) An astrocyte/neuron co-culture cultured on a 96 well plate was used in the test. A predetermined concentration of the test substance and hydrogen peroxide (250 μM) was simultaneously added to the cell culture in each well with continuing cultivation, and analysis was done 24 hours after this treatment. Using an LDH Cytotoxicity Detection Kit (Takara Bio), analysis was carried out in accordance with the included instruction manual, and the damage to the entire co-culture system by the hydrogen peroxide treatment and the protective effect (EC 50 value) of the test substance was evaluated. Further, the cell bodies and the neuronal processes of the neurons were observed by microscope, and the neuroprotective effect was evaluated.

In data set [2] the test system is neurons in astrocyte/neuron co-culture. Briefly: Brain cell damage induced by hydrogen peroxide treatment (neuroprotective effect, microscope observation). Type of data set: cell-based. The note with it: Rattus norvegicus, hydrogen peroxide (250 μM), 24 hours, read-out: Concentration for complete inhibition of neuronal death. How it is done:
as §1, §2, §3

Usually melting point stands for the temperature of the solid-liquid transition. `CN(C)c1cc(N2CCOCC2)nc(N2CCN(c3ccccc3)CC2)n1` [Compound 2, 4-dimethylamino-6-morpholino-2-(4-phenylpiperazin-1-yl)pyrimidine] returned a melting point of 149 °C. Moreover, in data set [1], the EC50 was found to be 18400 nM.
`c1ccc(N2CCN(c3nc(N4CCNCC4)cc(N4CCOCC4)n3)CC2)cc1` [Compound 52, 4-morpholino-2-(4-phenylpiperazin-1-yl)-6-(piperazin-1-yl)pyrimidine]: in data set [2], the EC100 was 30 µM. The EC50 in data set [1] was determined as 3160 nM.
As to `CCCNc1cc(N2CCOCC2)nc(N2CCN(c3ccccc3)CC2)n1` [Compound 56, 4-morpholino-2-(4-phenylpiperazin-1-yl)-6-propylaminopyrimidine], in data set [2], the EC100 turned out to be 10 µM. In data set [1], the EC50 amounted to 2950 nM.
`Cc1ccccc1N1CCN(c2nc(N3CCOCC3)cc(N3CCN(c4ccccc4)CC3)n2)CC1` [Compound 61, 2-[4-(2-methylphenyl)piperazin-1-yl]-6-morpholino-4-(4-phenylpiperazin-1-yl)pyrimidine]: the EC100 in data set [2] turned out to be 10 µM. Moreover, the EC50 in data set [1] turned out to be 6450 nM.
In the case of `Nc1c(N2CCOCC2)nc(N2CCOCC2)nc1N1CCC(Cc2ccccc2)CC1` [Compound 67, 5-amino-4-(4-benzylpiperidin-1-yl)-2,6-dimorpholinopyrimidine], in data set [1], the EC50 was 1780 nM.
On the same count and under the same terms, then `CN(C)c1nc(N2CCC(Cc3ccccc3)CC2)nc(N2CCOCC2)c1N` [Compound 68, 5-amino-2-(4-benzylpiperidin-1-yl)-4-dimethylamino-6-morpholinopyrimidine], with 860 nM; and `CC1CCc2cc(F)ccc2N1c1nc(N2CCOCC2)c(N)c(N2CCOCC2)n1` (stereo not drawn) [Compound 71, 5-amino-2-(6-fluoro-2-methyl-1,2,3,4-tetrahydroquinolin-1-yl)-4,6-dimorpholinopyrimidine], with 1960 nM.
`CC(=O)Nc1c(N2CCOCC2)nc(N2CCOCC2)nc1N1CCC(Cc2ccccc2)CC1` [Compound 78, 5-acetylamino-4-(4-benzylpiperidin-1-yl)-2,6-dimorpholinopyrimidine]: the EC100 in data set [2] amounted to 30 µM. Besides, the EC50 in data set [1] was 9750 nM.
As to `N#CC1(c2ccccc2)CCN(c2nc(N3CCOCC3)nc(N3CCOCC3)c2F)CC1` [Compound 115, 4-(4-cyano-4-phenylpiperidin-1-yl)-5-fluoro-2,6-dimorpholinopyrimidine], the EC50 in data set [1] was determined as 630 nM.
Turning to `Fc1c(N2CCOCC2)nc(N2CCN(C3CCCCC3)CC2)nc1N1CCOCC1` [Compound 123, 2-(4-cyclohexylpiperazin-1-yl)-5-fluoro-4,6-dimorpholinopyrimidine], the EC100 in data set [2] came to 10 µM. Also, the EC50 in data set [1] was found to be 2980 nM.
`Fc1ccccc1N1CCN(c2nc(N3CCN(c4ccccc4)CC3)nc(N3CCOCC3)c2F)CC1` [Compound 125, 5-fluoro-4-[4-(2-fluorophenyl)piperazin-1-yl]-6-morpholino-2-(4-phenylpiperazin-1-yl)pyrimidine] displayed a melting point of 140 to 141 °C. The EC50 in data set [1] turned out to be 560 nM.
The corresponding values for `Fc1ccccc1N1CCN(c2nc(N3CCOCC3)c(F)c(N3CCN(c4ccccc4F)CC3)n2)CC1` [Compound 126, 2,4-bis[4-(2-fluorophenyl)piperazin-1-yl]-5-fluoro-6-morpholinopyrimidine] are 131 to 132 °C and 800 nM.
With `Cc1ccccc1N1CCN(c2nc(N3CCOCC3)c(F)c(N3CCN(c4ccccc4)CC3)n2)CC1` [Compound 128, 5-fluoro-2-[4-(2-methylphenyl)piperazin-1-yl]-6-morpholino-4-(4-phenylpiperazin-1-yl)pyrimidine], the EC100 in data set [2] was 3 µM. Further, in data set [1], the EC50 was 300 nM.
As to `CCN(CC)c1ccc(CCCCc2nc(N3CCOCC3)c(N)c(N3CCOCC3)n2)cc1` [Compound 145, 5-amino-2-[4-(4-diethylaminophenyl)butyl]-4,6-dimorpholinopyrimidine], the EC50 in data set [1] turned out to be 670 nM.
Consider `Cc1ccc(N2CCN(c3nc(N4CCOCC4)c(F)c(N4CCN(C(=O)OC(C)(C)C)CC4)n3)CC2)cc1` [Compound 153, 4-[4-(tert-butoxycarbonyl)piperazin-1-yl]-5-fluoro-2-[4-(4-methylphenyl)piperazin-1-yl]-6-morpholinopyrimidine], for which the EC100 in data set [2] was 3 µM. Further, the EC50 in data set [1] is 450 nM.
On the same counts, the results for `Cc1ccc(N2CCN(c3nc(N4CCOCC4)nc(N4CCN(C)CC4)c3F)CC2)cc1` [Compound 155, 5-fluoro-4-[4-(4-methylphenyl)piperazin-1-yl]-6-(4-methylpiperazin-1-yl)-2-morpholinopyrimidine] are 3 µM and 320 nM.
On the same counts, the results for `Cc1ccc(N2CCN(c3nc(NCCN4CCNCC4)nc(N4CCOCC4)c3F)CC2)cc1` [Compound 158, 5-fluoro-4-[4-(4-methylphenyl)piperazin-1-yl]-6-morpholino-2-[2-(piperazin-1-yl)-ethylamino]pyrimidine] are 1 µM and 160 nM.
On the same counts, the results for `Cc1ccc(N2CCN(c3nc(N4CCOCC4)nc(NCCN4CCOCC4)c3F)CC2)cc1` [Compound 160, 5-fluoro-4-[4-(4-methylphenyl)piperazin-1-yl]-2-morpholino-6-(2-morpholinoethylamino)pyrimidine] are 3 µM and 1080 nM.
As to `CN1CCN(c2nc(N3CCCc4ccccc43)nc(N3CCOCC3)c2F)CC1` [Compound 167, 5-fluoro-4-(4-methylpiperazin-1-yl)-6-morpholino-2-(1,2,3,4-tetrahydro-1H-quinolin-1-yl)pyrimidine], the EC50 in data set [1] is 280 nM.
Take `CC(C)(C)OC(=O)N1CCN(c2nc(N3CCCc4ccccc43)nc(N3CCOCC3)c2F)CC1` [Compound 168, 4-[4-(tert-butoxycarbonyl)piperazin-1-yl]-5-fluoro-6-morpholino-2-(1,2,3,4-tetrahydro-1H-quinolin-1-yl)pyrimidine]: in data set [2], the EC100 is 3 µM. Also, in data set [1], the EC50 stood at 310 nM.
In the case of `CN1CCN(c2nc(N3CCOCC3)nc(N3CCN(c4ccccc4)CC3)c2F)CC1` [Compound 171, 5-fluoro-4-(4-methylpiperazin-1-yl)-2-morpholino-6-(4-phenylpiperazin-1-yl)pyrimidine], in data set [1], the EC50 came out at 490 nM.
With `COc1ccc(/C=C/c2nc(NCCN)c(N)c(N3CCOCC3)n2)cc1` [Compound 174, 5-amino-4-(2-aminoethylamino)-2-[2-(4-methoxyphenyl)vinyl]-6-morpholinopyrimidine], the EC100 in data set [2] was 10 µM. The EC50 in data set [1] is 3110 nM.
On the same counts, the results for `Cc1cccc(N2CCN(c3nc(N4CCNCC4)nc(N4CCOCC4)c3F)CC2)c1C` [Compound 178, 5-fluoro-4-morpholino-2-(1-piperazinyl)-6-[4-(2,3-xylyl)piperazin-1-yl]pyrimidine] are 3 µM and 480 nM.
The corresponding values for `Cc1cccc(N2CCN(c3nc(N4CCOCC4)c(F)c(N4CCN(C(=O)OC(C)(C)C)CC4)n3)CC2)c1C` [Compound 179, 4-(4-tert-butoxycarbonylpiperazin-1-yl)-5-fluoro-6-morpholino-2-[4-(2,3-xylyl)piperazin-1-yl]pyrimidine] are 3 µM and 340 nM.
On the same counts, the results for `CN1CCN(c2nc(N3CCN(c4ccccc4Cl)CC3)nc(N3CCOCC3)c2F)CC1` [Compound 187, 2-[4-(2-chlorophenyl)piperazin-1-yl]-5-fluoro-6-(4-methylpiperazin-1-yl)-4-morpholino pyrimidine] are 1 µM and 330 nM.
Take `Cc1cccc(N2CCN(c3nc(N4CCN(Cc5ccncc5)CC4)nc(N4CCOCC4)c3F)CC2)c1C` [Compound 191, 5-fluoro-4-morpholino-2-[4-(4-pyridinylmethyl)piperazin-1-yl]-6-[4-(2,3-xylyl)piperazin-1-yl]-pyrimidine]: the melting point lay in the range of 127 to 128 °C. The EC50 in data set [1] was found to be 730 nM.

The record behind these values is patent US8563715B2, “Pyrimidine derivative having cell protecting effect and uses thereof” (Zenyaku Kogyo Kabushikikaisha, priority 2008, dated 2013).
